According to ChEMBL document CHEMBL6087488, “Development of the First-in-Class FEM1B-Recruiting Histone Deacetylase Degraders” (J Med Chem, 2025):
One block for each molecule: values may come before it. Activity calls are given as the source filed them. The rule behind the calls is not given here.

Tests used:
[1] = tested on: MM1.S; test: Antiproliferative activity against human MM1.S cells assessed as cell viability measured after 72 hrs by CellTiter-Glo cell viability assay; format: functional, cell-based
[2] = molecular target: T1, Protein fem-1 homolog B/Histone deacetylase 1 (Homo sapiens, UniProt Q13547+Q9UK73); test: PROTAC activity at FEM1B/HDAC1 in human MM1.S cell lysate assessed as initial degradation measured after 24 hrs by Western immunoassay; format: subcellular
Target sequence in this assay (Q13547 whole entry): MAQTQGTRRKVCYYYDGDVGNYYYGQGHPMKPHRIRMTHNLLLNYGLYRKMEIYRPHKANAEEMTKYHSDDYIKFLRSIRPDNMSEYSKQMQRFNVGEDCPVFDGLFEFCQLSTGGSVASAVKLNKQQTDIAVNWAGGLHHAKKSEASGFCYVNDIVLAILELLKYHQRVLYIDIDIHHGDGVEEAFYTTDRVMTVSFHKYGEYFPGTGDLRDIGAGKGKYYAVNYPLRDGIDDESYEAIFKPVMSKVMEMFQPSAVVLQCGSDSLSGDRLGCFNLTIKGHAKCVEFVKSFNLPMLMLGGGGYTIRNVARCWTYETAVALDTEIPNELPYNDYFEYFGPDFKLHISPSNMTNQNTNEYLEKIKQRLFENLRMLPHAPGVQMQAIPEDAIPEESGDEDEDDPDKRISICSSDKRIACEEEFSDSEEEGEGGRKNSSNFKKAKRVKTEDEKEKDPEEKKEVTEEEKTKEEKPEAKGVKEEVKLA
Target sequence in this assay (Q9UK73 whole entry): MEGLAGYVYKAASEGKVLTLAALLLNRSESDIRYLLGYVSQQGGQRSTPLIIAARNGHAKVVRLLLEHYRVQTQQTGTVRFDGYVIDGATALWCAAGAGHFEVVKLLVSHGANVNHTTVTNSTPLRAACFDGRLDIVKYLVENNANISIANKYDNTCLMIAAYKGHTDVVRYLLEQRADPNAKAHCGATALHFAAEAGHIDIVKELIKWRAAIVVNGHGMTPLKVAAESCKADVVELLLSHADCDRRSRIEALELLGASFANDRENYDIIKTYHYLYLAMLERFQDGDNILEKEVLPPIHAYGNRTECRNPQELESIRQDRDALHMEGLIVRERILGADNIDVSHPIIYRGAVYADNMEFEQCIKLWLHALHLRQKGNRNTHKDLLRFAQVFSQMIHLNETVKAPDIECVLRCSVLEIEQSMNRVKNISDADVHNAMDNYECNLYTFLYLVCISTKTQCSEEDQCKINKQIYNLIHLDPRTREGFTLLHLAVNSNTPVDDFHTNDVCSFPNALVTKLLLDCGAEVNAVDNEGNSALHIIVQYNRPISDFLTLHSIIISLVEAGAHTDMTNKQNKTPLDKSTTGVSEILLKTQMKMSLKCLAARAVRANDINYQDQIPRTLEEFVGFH

[3] = molecular target: Histone deacetylase 1 (Homo sapiens, UniProt Q13547); test: Inhibition of human recombinant HDAC1 using ZMAL (Z-(Ac)Lys-AMC) as substrate incubated for 90 mins by fluorescence based assay
Histone deacetylase 1, sequence (Q13547 whole entry): as the sequence (Q13547 whole entry) above

[4] = molecular target: Histone deacetylase 2 (Homo sapiens, UniProt Q92769); test: Inhibition of human HDAC2 using ZMAL (Z-(Ac)Lys-AMC) as substrate incubated for 90 mins by fluorescence based assay
Histone deacetylase 2, sequence (Q92769 whole entry): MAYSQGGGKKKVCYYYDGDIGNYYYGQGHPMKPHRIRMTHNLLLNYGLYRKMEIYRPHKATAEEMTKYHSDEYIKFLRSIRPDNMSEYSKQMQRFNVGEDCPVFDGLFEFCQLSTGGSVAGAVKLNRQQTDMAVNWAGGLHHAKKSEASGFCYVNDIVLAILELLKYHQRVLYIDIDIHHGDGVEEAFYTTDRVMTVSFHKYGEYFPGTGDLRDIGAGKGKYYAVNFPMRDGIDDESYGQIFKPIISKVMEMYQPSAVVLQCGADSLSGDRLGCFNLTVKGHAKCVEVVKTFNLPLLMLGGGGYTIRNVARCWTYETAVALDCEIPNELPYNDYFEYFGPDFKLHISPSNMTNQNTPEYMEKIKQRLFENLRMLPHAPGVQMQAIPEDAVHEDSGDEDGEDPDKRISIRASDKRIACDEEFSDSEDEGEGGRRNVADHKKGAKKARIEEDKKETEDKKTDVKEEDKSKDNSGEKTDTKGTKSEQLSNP

[5] = molecular target: Histone deacetylase 4 (Homo sapiens, UniProt P56524); test: Inhibition of human HDAC4 using Boc-Lys(Tfa)-AMC as substrate incubated for 90 mins by fluorescence based assay
Histone deacetylase 4, sequence (P56524 whole entry): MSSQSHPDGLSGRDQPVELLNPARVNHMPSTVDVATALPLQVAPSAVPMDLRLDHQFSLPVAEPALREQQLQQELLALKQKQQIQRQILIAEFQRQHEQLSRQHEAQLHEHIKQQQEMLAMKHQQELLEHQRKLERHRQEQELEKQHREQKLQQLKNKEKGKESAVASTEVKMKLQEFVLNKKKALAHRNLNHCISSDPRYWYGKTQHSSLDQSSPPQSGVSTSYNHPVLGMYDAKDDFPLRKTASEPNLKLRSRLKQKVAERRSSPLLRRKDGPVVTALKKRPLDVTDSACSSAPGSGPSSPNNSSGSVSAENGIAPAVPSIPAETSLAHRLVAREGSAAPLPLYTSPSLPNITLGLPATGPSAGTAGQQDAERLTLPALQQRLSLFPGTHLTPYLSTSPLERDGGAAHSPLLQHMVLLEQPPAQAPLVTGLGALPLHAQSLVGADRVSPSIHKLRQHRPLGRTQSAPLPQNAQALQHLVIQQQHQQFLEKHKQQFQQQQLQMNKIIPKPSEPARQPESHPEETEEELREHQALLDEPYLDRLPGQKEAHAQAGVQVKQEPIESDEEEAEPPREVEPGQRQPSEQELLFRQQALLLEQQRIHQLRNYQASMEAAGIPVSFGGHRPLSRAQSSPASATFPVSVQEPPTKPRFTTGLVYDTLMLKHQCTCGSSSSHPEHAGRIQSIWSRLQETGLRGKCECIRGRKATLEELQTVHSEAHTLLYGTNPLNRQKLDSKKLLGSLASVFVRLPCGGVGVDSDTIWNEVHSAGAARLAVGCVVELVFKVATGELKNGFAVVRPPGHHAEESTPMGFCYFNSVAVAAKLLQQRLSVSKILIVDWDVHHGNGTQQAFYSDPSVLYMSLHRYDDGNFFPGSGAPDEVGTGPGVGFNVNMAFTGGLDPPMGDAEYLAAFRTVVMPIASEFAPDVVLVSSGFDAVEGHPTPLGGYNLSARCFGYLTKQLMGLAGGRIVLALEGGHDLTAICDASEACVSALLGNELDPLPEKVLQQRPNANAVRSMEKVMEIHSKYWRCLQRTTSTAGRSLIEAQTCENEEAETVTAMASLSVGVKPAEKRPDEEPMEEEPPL

[6] = molecular target: T2, Protein deacetylase HDAC6 (Homo sapiens, UniProt Q9UBN7); test: Inhibition of human HDAC6 using ZMAL (Z-(Ac)Lys-AMC) as substrate incubated for 90 mins by fluorescence based assay
T2 sequence (Q9UBN7 whole entry): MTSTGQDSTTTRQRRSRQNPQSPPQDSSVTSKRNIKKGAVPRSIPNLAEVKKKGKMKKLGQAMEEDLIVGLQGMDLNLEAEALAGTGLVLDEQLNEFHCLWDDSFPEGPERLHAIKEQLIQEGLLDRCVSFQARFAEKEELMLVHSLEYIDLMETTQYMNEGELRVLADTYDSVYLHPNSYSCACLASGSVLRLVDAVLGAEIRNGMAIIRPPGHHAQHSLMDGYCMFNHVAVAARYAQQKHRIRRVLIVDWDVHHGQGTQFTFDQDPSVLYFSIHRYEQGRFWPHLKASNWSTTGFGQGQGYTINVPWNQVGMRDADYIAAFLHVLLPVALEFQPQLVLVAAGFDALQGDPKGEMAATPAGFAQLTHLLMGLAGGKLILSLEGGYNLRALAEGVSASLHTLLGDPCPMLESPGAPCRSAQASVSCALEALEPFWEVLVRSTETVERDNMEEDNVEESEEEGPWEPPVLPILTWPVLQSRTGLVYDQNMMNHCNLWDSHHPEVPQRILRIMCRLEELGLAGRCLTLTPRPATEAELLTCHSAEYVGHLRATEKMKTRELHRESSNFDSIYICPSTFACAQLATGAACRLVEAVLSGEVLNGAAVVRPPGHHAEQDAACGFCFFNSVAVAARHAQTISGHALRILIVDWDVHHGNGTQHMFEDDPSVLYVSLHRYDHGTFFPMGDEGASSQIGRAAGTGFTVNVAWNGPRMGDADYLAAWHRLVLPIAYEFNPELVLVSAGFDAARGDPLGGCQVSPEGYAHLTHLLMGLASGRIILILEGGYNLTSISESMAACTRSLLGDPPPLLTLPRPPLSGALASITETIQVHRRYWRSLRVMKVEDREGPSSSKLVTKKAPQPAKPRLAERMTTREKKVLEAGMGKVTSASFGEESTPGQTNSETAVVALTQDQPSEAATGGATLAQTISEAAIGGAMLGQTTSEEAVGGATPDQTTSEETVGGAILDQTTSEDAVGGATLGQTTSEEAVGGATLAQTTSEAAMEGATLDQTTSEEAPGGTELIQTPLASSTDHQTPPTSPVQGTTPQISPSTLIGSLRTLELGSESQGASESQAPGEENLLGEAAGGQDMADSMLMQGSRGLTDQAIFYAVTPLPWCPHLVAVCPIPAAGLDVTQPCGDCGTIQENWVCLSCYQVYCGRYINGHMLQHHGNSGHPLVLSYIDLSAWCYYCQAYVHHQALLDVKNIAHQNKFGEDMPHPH

[7] = tested on: MV4-11; test: Antiproliferative activity against human MV4-11 cells assessed as cell viability measured after 72 hrs incubation by MTT assay; format: functional, cell-based; conditions: MV4-11, 72 h
[8] = tested on: MDA-MB-231; test: Antiproliferative activity against human MDA-MB-231 cells assessed as cell viability measured after 72 hrs incubation by MTT assay; format: functional, cell-based; conditions: MDA-MB-231, 72 h
[9] = tested on: U-87 MG; test: Antiproliferative activity against human U-87 MG cells assessed as cell viability measured after 72 hrs incubation by MTT assay; format: functional, cell-based, U-87MG ATCC
[10] = tested on: MM1.S; test: Antiproliferative activity against human MM1.S cells assessed as cell viability up to 50 uM measured after 72 hrs by CellTiter-Glo cell viability assay; format: functional, cell-based
[11] = tested on: MDA-MB-231; test: Antiproliferative activity against human MDA-MB-231 cells assessed as cell viability up to 50 uM measured after 72 hrs incubation by MTT assay relative to control; format: functional
[12] = tested on: U-87 MG; test: Antiproliferative activity against human U-87 MG cells assessed as cell viability up to 50 uM measured after 72 hrs incubation by MTT assay relative to control; format: functional, U-87MG ATCC
[13] = tested on: MM1.S; test: Induction of cell cycle arrest in human MM1.S cells assessed as reduction in cells at […] phase at 10 uM measured after 48 hrs by propidium iodide based flow cytometry; format: functional
[14] = tested on: MM1.S; test: Induction of cell cycle arrest in human MM1.s cells assessed as increase in cells at Sub-G1 phase at 10 uM measured after 48 hrs by propidium iodide based flow cytometry; format: functional
[15] = tested on: MM1.S; test: Induction of apoptosis in human MM1.S cells assessed as increase in early apoptotic cells at 10 uM measured after 48 hrs by annexin V-FITC/PI staining based assay; format: functional, cell-based
[16] = tested on: MM1.S; test: Induction of apoptosis in human MM1.S cells assessed as increase in late apoptotic cells at 10 uM measured after 48 hrs by annexin V-FITC/PI staining based assay; format: functional, cell-based
[17] = tested on: MM1.S; test: Antiproliferative activity against human MM1.S cells assessed as cell viability up to 50 uM measured after 72 hrs incubation by MTT assay; format: functional
[18] = molecular target: T1, Protein fem-1 homolog B/Histone deacetylase 1; test: PROTAC activity at FEM1B/HDAC1 in human MM1.S cell lysate assessed as initial degradation at 1 uM measured after 24 hrs by Western immunoassay; format: subcellular
Target sequence in this assay (Q13547 whole entry, looked up): as the sequence (Q13547 whole entry) above
Target sequence in this assay (Q9UK73 whole entry, looked up): as the sequence (Q9UK73 whole entry) above

[19] = molecular target: T1, Protein fem-1 homolog B/Histone deacetylase 1; test: PROTAC activity at FEM1B/HDAC1 in human MM.1S cell lysate assessed as maximal initial degradation at measured after 24 hrs by Western immunoassay relative to control; format: subcellular; conditions: MM1.S
Target sequence in this assay (Q13547 whole entry, looked up): as the sequence (Q13547 whole entry) above
Target sequence in this assay (Q9UK73 whole entry, looked up): as the sequence (Q9UK73 whole entry) above

[20] = molecular target: T1, Protein fem-1 homolog B/Histone deacetylase 1; test: PROTAC activity at FEM1B/HDAC1 in human MM1.S cell lysate assessed as protein degradation at 1 uM measured after 24 hrs by Western immunoassay; format: subcellular
Target sequence in this assay (Q13547 whole entry, looked up): as the sequence (Q13547 whole entry) above
Target sequence in this assay (Q9UK73 whole entry, looked up): as the sequence (Q9UK73 whole entry) above

[21] = molecular target: Protein fem-1 homolog B/Histone deacetylase 2 (Homo sapiens) (UniProt Q92769+Q9UK73); test: PROTAC activity at FEM1B/HDAC2 in human MM1.S cell lysate assessed as protein degradation at 1 uM measured after 24 hrs by Western immunoassay; format: subcellular
Protein fem-1 homolog B/Histone deacetylase 2 (Homo sapiens), sequence (Q92769 whole entry, looked up): as the sequence (Q92769 whole entry) above
Protein fem-1 homolog B/Histone deacetylase 2 (Homo sapiens), sequence (Q9UK73 whole entry, looked up): as the sequence (Q9UK73 whole entry) above

[22] = molecular target: Protein fem-1 homolog B/Histone deacetylase 3 (Homo sapiens) (UniProt O15379+Q9UK73); test: PROTAC activity at FEM1B/HDAC3 in human MM1.S cell lysate assessed as protein degradation at 1 uM measured after 24 hrs by Western immunoassay; format: subcellular
Protein fem-1 homolog B/Histone deacetylase 3 (Homo sapiens), sequence (O15379 whole entry, looked up): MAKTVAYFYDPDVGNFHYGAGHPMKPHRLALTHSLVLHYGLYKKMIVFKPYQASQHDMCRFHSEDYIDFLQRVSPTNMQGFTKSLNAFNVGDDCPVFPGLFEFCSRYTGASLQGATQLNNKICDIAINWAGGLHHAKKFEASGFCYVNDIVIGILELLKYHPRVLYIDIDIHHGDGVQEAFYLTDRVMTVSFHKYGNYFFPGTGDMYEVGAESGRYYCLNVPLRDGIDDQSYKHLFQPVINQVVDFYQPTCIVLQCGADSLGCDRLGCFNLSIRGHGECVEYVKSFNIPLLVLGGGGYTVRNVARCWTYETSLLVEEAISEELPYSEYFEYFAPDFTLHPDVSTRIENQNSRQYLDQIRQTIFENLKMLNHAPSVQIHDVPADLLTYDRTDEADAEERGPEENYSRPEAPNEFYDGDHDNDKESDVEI
Protein fem-1 homolog B/Histone deacetylase 3 (Homo sapiens), sequence (Q9UK73 whole entry, looked up): as the sequence (Q9UK73 whole entry) above

[23] = molecular target: Protein fem-1 homolog B/Protein deacetylase HDAC6 (Homo sapiens) (UniProt Q9UBN7+Q9UK73); test: PROTAC activity at FEM1B/HDAC6 in human MM1.S cell lysate assessed as protein degradation at 1 uM measured after 24 hrs by Western immunoassay; format: subcellular
Protein fem-1 homolog B/Protein deacetylase HDAC6 (Homo sapiens), sequence (Q9UK73 whole entry, looked up, one chain of several): as the sequence (Q9UK73 whole entry) above

[24] = molecular target: Protein fem-1 homolog B/Histone deacetylase 4 (Homo sapiens) (UniProt P56524+Q9UK73); test: PROTAC activity at FEM1B/HDAC4 in human MM1.S cell lysate assessed as protein degradation at 1 uM measured after 24 hrs by Western immunoassay; format: subcellular
Protein fem-1 homolog B/Histone deacetylase 4 (Homo sapiens), sequence (P56524 whole entry, looked up): as the sequence (P56524 whole entry) above
Protein fem-1 homolog B/Histone deacetylase 4 (Homo sapiens), sequence (Q9UK73 whole entry, looked up): as the sequence (Q9UK73 whole entry) above

[25] = molecular target: Protein fem-1 homolog B/Histone deacetylase 8 (Homo sapiens) (UniProt Q9BY41+Q9UK73); test: PROTAC activity at FEM1B/HDAC8 in human MM1.S cell lysate assessed as protein degradation at 1 uM measured after 24 hrs by Western immunoassay; format: subcellular
Protein fem-1 homolog B/Histone deacetylase 8 (Homo sapiens), sequence (Q9BY41 whole entry, looked up): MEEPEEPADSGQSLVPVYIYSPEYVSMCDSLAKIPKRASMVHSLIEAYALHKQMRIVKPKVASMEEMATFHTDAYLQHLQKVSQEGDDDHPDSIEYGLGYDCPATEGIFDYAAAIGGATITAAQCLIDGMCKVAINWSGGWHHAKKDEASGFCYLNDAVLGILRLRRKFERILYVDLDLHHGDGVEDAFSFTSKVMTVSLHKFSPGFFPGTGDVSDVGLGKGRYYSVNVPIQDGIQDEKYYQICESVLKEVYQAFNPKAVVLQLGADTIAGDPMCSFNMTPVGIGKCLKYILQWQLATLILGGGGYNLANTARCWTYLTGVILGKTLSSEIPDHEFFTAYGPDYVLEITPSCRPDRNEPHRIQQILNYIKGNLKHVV
Protein fem-1 homolog B/Histone deacetylase 8 (Homo sapiens), sequence (Q9UK73 whole entry, looked up): as the sequence (Q9UK73 whole entry) above

[26] = tested on: MM1.S; test: Antiproliferative activity against human MM1.S cells assessed as cell viability measured after 72 hrs incubation by MTT assay; format: functional, cell-based

SMILES: N#CCCN(C(=O)CCl)c1ccc2c(c1)OCCN2CC(=O)NCCOCCOCCOCCC(=O)Nc1ccc(C(=O)NCCCCCCC(=O)NO)cc1
EC50 ([1]; Homo sapiens, MM1.S, 72 h): 35.2 µM

SMILES: N#CCCN(C(=O)CCl)c1ccc2c(c1)OCCN2CC(=O)NCCOCCOCCOCCOCCC(=O)Nc1ccc(C(=O)NCCCCCCC(=O)NO)cc1
EC50 ([1]; Homo sapiens, MM1.S, 72 h): 42.3 µM

SMILES: N#CCCN(C(=O)CCl)c1ccc2c(c1)OCCN2CC(=O)NCC(=O)Nc1ccc(C(=O)NCCCCCCC(=O)NO)cc1 [listing 1 of 2 here]
EC50 ([1]; mm1.s): 5.02 µM

SMILES: N#CCCN(C(=O)CCl)c1ccc2c(c1)OCCN2CC(=O)NCC(=O)Nc1ccc(C(=O)NCCCCCCC(=O)NO)cc1 [listing 2 of 2 here]
EC50 ([1]; mm1.s): 2.33 µM | DC50 [2]: 0.257 µM | IC50 [3]: 0.074 µM | IC50 [4]: 0.156 µM | IC50 ([5]; read-out: IC50): 13.3 µM | IC50 [6]: 0.009 µM | EC50 [7]: 0.958 µM | EC50 [8]: 26.5 µM | EC50 [9]: 37.4 µM

SMILES: O=C(CCCCCCNC(=O)c1ccc(NC(=O)CCCCCCCNC(=O)COc2cccc3c2C(=O)N(C2CCC(=O)NC2=O)C3=O)cc1)NO (configuration not stated)
Activity [10]: inactive | EC50 [7]: 17.5 µM | Activity [11]: <=25% | Activity [12]: <=25% | Activity [13]: inactive | Activity [14]: inactive | Activity [15]: inactive | Activity [16]: inactive | Activity [17]: <=25%

SMILES: O=C(CCCCCCC(=O)Nc1ccccc1)NO [VORINOSTAT]
IC50 [5]: Not_active

Continued, in another order:

EC50 ([1]; Homo sapiens, MM1.S, 72 h): 10.3 µM
SMILES: N#CCCN(C(=O)CCl)c1ccc2c(c1)OCCN2CC(=O)NCCCC(=O)Nc1ccc(C(=O)NCCCCCCC(=O)NO)cc1

EC50 ([1]; Homo sapiens, MM1.S, 72 h): 1.52 µM
SMILES: N#CCCN(C(=O)CCl)c1ccc2c(c1)OCCN2CC(=O)NCCCCCCCCCCCC(=O)Nc1ccc(C(=O)NCCCCCCC(=O)NO)cc1

EC50 ([1]; Homo sapiens, MM1.S, 72 h): 7.75 µM
SMILES: N#CCCN(C(=O)CCl)c1ccc2c(c1)OCCN2CC(=O)NC1CCC(C(=O)Nc2ccc(C(=O)NCCCCCCC(=O)NO)cc2)CC1 (configuration not stated)

EC50 ([1]; Homo sapiens, MM1.S, 72 h): 7.39 µM
SMILES: N#CCCN(C(=O)CCl)c1ccc2c(c1)OCCN2CC(=O)NCCCCCC(=O)Nc1ccc(C(=O)NCCCCCCC(=O)NO)cc1

EC50 ([1]; Homo sapiens, MM1.S, 72 h): 6.43 µM
SMILES: N#CCCN(C(=O)CCl)c1ccc2c(c1)OCCN2CC(=O)NC[C@H]1CC[C@H](C(=O)Nc2ccc(C(=O)NCCCCCCC(=O)NO)cc2)CC1

EC50 ([1]; Homo sapiens, MM1.S, 72 h): 2.28 µM | Activity [18]: 52.8% | DC50 [2]: 0.228 µM | Emax [19]: 67.4% | IC50 [3]: 0.07 µM | IC50 [4]: 0.143 µM | IC50 ([5]; read-out: IC50): 3.62 µM | IC50 [6]: 0.004 µM | Activity [20]: Active | Activity [21]: Active | Activity [22]: Active | Activity [23]: inactive | Activity [24]: inactive | Activity [25]: inactive | EC50 [26]: 2.28 µM | EC50 [7]: 0.358 µM | EC50 [8]: 23.3 µM | EC50 [9]: 49.7 µM
SMILES: N#CCCN(C(=O)CCl)c1ccc2c(c1)OCCN2CC(=O)NCCCCCCCC(=O)Nc1ccc(C(=O)NCCCCCCC(=O)NO)cc1
Activity [13]: Active | Activity [14]: Active | Activity [15]: Active | Activity [16]: Active

EC50 ([1]; Homo sapiens, MM1.S, 72 h): 26.7 µM
SMILES: N#CCCN(C(=O)CCl)c1ccc2c(c1)OCCN2CC(=O)NCCOCCOCCC(=O)Nc1ccc(C(=O)NCCCCCCC(=O)NO)cc1

EC50 ([1]; Homo sapiens, MM1.S, 72 h): 4.73 µM | Activity [18]: 61.9% | DC50 [2]: 0.482 µM | Emax [19]: 79.8% | IC50 [3]: 0.094 µM | IC50 [4]: 0.196 µM | IC50 ([5]; read-out: IC50): 8.6 µM | IC50 [6]: 0.006 µM | Activity [20]: Active | Activity [21]: Active | Activity [22]: Active | Activity [23]: inactive | Activity [24]: inactive | Activity [25]: inactive | EC50 [26]: 4.73 µM | EC50 [7]: 1.14 µM | EC50 [8]: 8.68 µM | EC50 [9]: 66 µM
SMILES: N#CCCN(C(=O)CCl)c1ccc2c(c1)OCCN2CC(=O)N1CCC(C(=O)Nc2ccc(C(=O)NCCCCCCC(=O)NO)cc2)CC1
Activity [13]: Active | Activity [14]: Active | Activity [15]: Active | Activity [16]: Active
